This is an account of results in patent US20250262263A1, “METHOD AND COMPOSITIONS FOR THE USE OF BOTANICAL EXTRACTS IN THE TREATMENT OF VIRAL INFECTIONS” (priority 2024, published 2025).

The subject of the assay is VACV. It is filed as cell-based, vaccinia virus. The following applies: 100 pfu VACV, 48 HPI.

On to `C=C(C)[C@@H]1CC[C@]2(C)CC[C@]3(C)[C@H](CC[C@@H]4[C@@]5(C)CC[C@H](O)C(C)(C)[C@@H]5CC[C@]43C)[C@@H]12` [lupeol], for which the “antiviral activity (VACV plaques)” value is recorded as “did not show suitable antiviral activity”.
